Data published in PubChem BioAssay (NCI).
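Protocol summary: plate cells (96-well), add compound at 5 concentrations, incubate 48 h, interpolate endpoints linearly. Here, GI50 denotes the concentration required for 50% inhibition of growth. The concentration for full growth arrest is given as TGI.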

What was measured:
Experiment in all cases: NCI-60 cell line screen, 48 h
HL-60(TB) leukemia = system: HL-60(TB) leukemia
MDA-MB-435 = system: MDA-MB-435
SK-OV-3 ovarian = system: SK-OV-3 ovarian
ACHN renal = system: ACHN renal
HS 578T breast = system: HS 578T breast
A498 renal = system: A498 renal
EKVX NSCLC = system: EKVX NSCLC
OVCAR-3 ovarian = system: OVCAR-3 ovarian
NCI/ADR-RES ovarian = system: NCI/ADR-RES ovarian
TK-10 renal = system: TK-10 renal
BT-549 breast = system: BT-549 breast
CAKI-1 renal = system: CAKI-1 renal
RXF 393 renal = system: RXF 393 renal
SK-MEL-5 melanoma = system: SK-MEL-5 melanoma
COLO 205 colon = system: COLO 205 colon
HOP-62 NSCLC = system: HOP-62 NSCLC
HOP-92 NSCLC = system: HOP-92 NSCLC
NCI-H226 lung = system: NCI-H226 lung
SW-620 colon = system: SW-620 colon
PC-3 prostate = system: PC-3 prostate
SF-295 CNS = system: SF-295 CNS
OVCAR-4 ovarian = system: OVCAR-4 ovarian
SR leukemia = system: SR leukemia
MDA-MB-231 breast = system: MDA-MB-231 breast
UO-31 renal = system: UO-31 renal
786-0 renal = system: 786-0 renal
M14 melanoma = system: M14 melanoma
U251 CNS = system: U251 CNS
RPMI-8226 leukemia = system: RPMI-8226 leukemia
HCC-2998 colon = system: HCC-2998 colon
MDA-MB-468 breast = system: MDA-MB-468 breast
SK-MEL-28 melanoma = system: SK-MEL-28 melanoma
SNB-75 CNS = system: SNB-75 CNS
OVCAR-8 ovarian = system: OVCAR-8 ovarian
HT29 colon = system: HT29 colon
IGROV1 ovarian = system: IGROV1 ovarian
DU-145 prostate = system: DU-145 prostate
NCI-H460 lung = system: NCI-H460 lung
CCRF-CEM leukemia = system: CCRF-CEM leukemia
SF-539 CNS = system: SF-539 CNS
SK-MEL-2 melanoma = system: SK-MEL-2 melanoma
UACC-257 melanoma = system: UACC-257 melanoma
A549 NSCLC = system: A549 NSCLC
SF-268 CNS = system: SF-268 CNS
KM12 colon = system: KM12 colon
HCT-15 colon = system: HCT-15 colon
HCT-116 colon = system: HCT-116 colon
T-47D breast = system: T-47D breast
LOX IMVI melanoma = system: LOX IMVI melanoma
MCF7 breast = system: MCF7 breast
MALME-3M melanoma = system: MALME-3M melanoma
NCI-H23 lung = system: NCI-H23 lung
UACC-62 melanoma = system: UACC-62 melanoma
K-562 leukemia = system: K-562 leukemia
SN12C renal = system: SN12C renal
MOLT-4 leukemia = system: MOLT-4 leukemia
OVCAR-5 ovarian = system: OVCAR-5 ovarian
NCI-H522 lung = system: NCI-H522 lung
SNB-19 CNS = system: SNB-19 CNS

CN1CCc2c(sc3ncnc(N/N=C/c4cn(-c5ccccc5)nc4-c4ccc(Cl)cc4)c23)C1
GI50 (HL-60(TB) leukemia): 292 nM
TGI (HL-60(TB) leukemia): 1980 nM
GI50 (MDA-MB-435): 1610 nM
TGI (MDA-MB-435): > 100000 nM
GI50 (SK-OV-3 ovarian): > 36200 nM
TGI (SK-OV-3 ovarian): > 76100 nM
GI50 (ACHN renal): 481 nM
TGI (ACHN renal): 20400 nM
GI50 (HS 578T breast): 15600 nM
TGI (HS 578T breast): > 89700 nM
GI50 (A498 renal): > 56700 nM
TGI (A498 renal): > 100000 nM
GI50 (EKVX NSCLC): 313 nM
TGI (EKVX NSCLC): > 42600 nM
GI50 (OVCAR-3 ovarian): 242 nM
TGI (OVCAR-3 ovarian): 6220 nM
GI50 (NCI/ADR-RES ovarian): 320 nM
TGI (NCI/ADR-RES ovarian): 1760 nM
GI50 (TK-10 renal): 2470 nM
TGI (TK-10 renal): 38300 nM
GI50 (BT-549 breast): 2890 nM
TGI (BT-549 breast): > 31800 nM
GI50 (CAKI-1 renal): 1320 nM
TGI (CAKI-1 renal): > 66700 nM
GI50 (RXF 393 renal): 3560 nM
TGI (RXF 393 renal): 34600 nM
GI50 (SK-MEL-5 melanoma): 544 nM
TGI (SK-MEL-5 melanoma): 20500 nM
GI50 (COLO 205 colon): 406 nM
TGI (COLO 205 colon): > 100000 nM
GI50 (HOP-62 NSCLC): 724 nM
TGI (HOP-62 NSCLC): > 84300 nM
GI50 (HOP-92 NSCLC): 643 nM
TGI (HOP-92 NSCLC): 49600 nM
GI50 (NCI-H226 lung): 1190 nM
TGI (NCI-H226 lung): > 65900 nM
GI50 (SW-620 colon): 387 nM
TGI (SW-620 colon): > 100000 nM
GI50 (PC-3 prostate): 472 nM
TGI (PC-3 prostate): > 100000 nM
GI50 (SF-295 CNS): 403 nM
TGI (SF-295 CNS): > 37700 nM
GI50 (OVCAR-4 ovarian): 462 nM
TGI (OVCAR-4 ovarian): 69900 nM
GI50 (SR leukemia): 2660 nM
TGI (SR leukemia): > 100000 nM
GI50 (MDA-MB-231 breast): 468 nM
TGI (MDA-MB-231 breast): 32000 nM
GI50 (UO-31 renal): 475 nM
TGI (UO-31 renal): 25400 nM
GI50 (786-0 renal): 588 nM
TGI (786-0 renal): 18000 nM
GI50 (M14 melanoma): 598 nM
TGI (M14 melanoma): > 38700 nM
GI50 (U251 CNS): 688 nM
TGI (U251 CNS): > 54100 nM
GI50 (RPMI-8226 leukemia): 443 nM
TGI (RPMI-8226 leukemia): > 100000 nM
GI50 (HCC-2998 colon): 500 nM
TGI (HCC-2998 colon): 34800 nM
GI50 (MDA-MB-468 breast): 208 nM
TGI (MDA-MB-468 breast): 595 nM
GI50 (SK-MEL-28 melanoma): 5560 nM
TGI (SK-MEL-28 melanoma): > 100000 nM
GI50 (SNB-75 CNS): 13800 nM
TGI (SNB-75 CNS): 60800 nM
GI50 (OVCAR-8 ovarian): 368 nM
TGI (OVCAR-8 ovarian): > 38500 nM
GI50 (HT29 colon): 442 nM
TGI (HT29 colon): 13900 nM
GI50 (IGROV1 ovarian): 379 nM
TGI (IGROV1 ovarian): 21100 nM
GI50 (DU-145 prostate): 1410 nM
TGI (DU-145 prostate): > 100000 nM
GI50 (NCI-H460 lung): 390 nM
TGI (NCI-H460 lung): 30000 nM
GI50 (CCRF-CEM leukemia): 504 nM
TGI (CCRF-CEM leukemia): > 100000 nM
GI50 (SF-539 CNS): 345 nM
TGI (SF-539 CNS): 10700 nM
GI50 (SK-MEL-2 melanoma): 990 nM
TGI (SK-MEL-2 melanoma): 24400 nM
GI50 (UACC-257 melanoma): 473 nM
TGI (UACC-257 melanoma): > 100000 nM
GI50 (A549 NSCLC): 496 nM
TGI (A549 NSCLC): > 100000 nM
GI50 (SF-268 CNS): 678 nM
TGI (SF-268 CNS): > 100000 nM
GI50 (KM12 colon): 496 nM
TGI (KM12 colon): > 100000 nM
GI50 (HCT-15 colon): 390 nM
TGI (HCT-15 colon): > 100000 nM
GI50 (HCT-116 colon): 115 nM
GI50 (T-47D breast): 2590 nM
TGI (T-47D breast): > 100000 nM
GI50 (LOX IMVI melanoma): 305 nM
TGI (LOX IMVI melanoma): 4120 nM
GI50 (MCF7 breast): 223 nM
TGI (MCF7 breast): 635 nM
GI50 (MALME-3M melanoma): 999 nM
TGI (MALME-3M melanoma): > 100000 nM
GI50 (NCI-H23 lung): 326 nM
TGI (NCI-H23 lung): 10800 nM
GI50 (UACC-62 melanoma): 787 nM
TGI (UACC-62 melanoma): 14400 nM
GI50 (K-562 leukemia): 290 nM
TGI (K-562 leukemia): > 100000 nM
GI50 (SN12C renal): 340 nM
TGI (SN12C renal): > 100000 nM
GI50 (MOLT-4 leukemia): 319 nM
TGI (MOLT-4 leukemia): > 100000 nM
GI50 (OVCAR-5 ovarian): 419 nM
TGI (OVCAR-5 ovarian): > 100000 nM
GI50 (NCI-H522 lung): 323 nM
TGI (NCI-H522 lung): 5380 nM
GI50 (SNB-19 CNS): 3280 nM
TGI (SNB-19 CNS): > 57300 nM
